The values that follow come from patent US7169789B2 (Kirin Beer Kabushiki Kaisha, priority 1999, dated 2007).

Like-named read-outs stand apart in the source and are kept apart here.

Assay [1] has as its system activation of MAPK within vascular endothelial cells induced by VEGF stimulation. Briefly: Inhibitory activity against activation of MAPK within vascular endothelial cells induced by VEGF stimulation. It is filed as cell-based. The following applies: human funicular venous vascular endothelial cells, VEGF 50 ng/ml, phosphorylated MAPK by immunoblotting. On the procedure:
Measurement of Inhibitory Activity Against Activation of MAPK Within Vascular Endothelial Cells Induced by VEGF Stimulation
Human funicular venous vascular endothelial cells (purchased from Chronetics) were cultured in an EGM-2 medium (purchased from Chronetics) within an incubator containing 5% carbon dioxide until 50 to 70% confluent, and the culture was inoculated into wells, containing the same medium, in a 96-well flat-bottom plate in an amount of 1.5×10^5 per well. After cultivation at 37° C. overnight, the medium was replaced by an EBM-2 medium containing 0.5% fetal calf serum (purchased from Chronetics), followed by cultivation for 24 hr. A solution of the test compound in dimethyl sulfoxide was added to each well, and the cultivation was continued at 37° C. for additional one hr. A human recombinant vascular endothelial growth factor (hereinafter abbreviated to “VEGF”) was added to a final concentration of 50 ng/ml, and the stimulation of cells was carried out at 37° C. for 8 min. The medium was removed, the cells were washed with phosphate buffered saline (pH 7.4), and 10 μl of a solubilization buffer (Tris buffered saline (pH 7.4) containing 1% Triton X100, 2 mM sodium orthovanadylate, and 1 mM disodium ethylenediaminetetraacetate) was then added thereto. The mixture was shaken at 4° C. for one hr to solubilize the cells. An equal amount of Tris buffered saline containing 1% sodium laurylsulfate was added to and thoroughly mixed with the solution. This solution (2 μl) was adsorbed on a PVDF filter by dot blotting, and this filter was subjected to immunoblotting with anti-tyrosine phosphorylated MAPK antibody (purchased from Daiichi Pure Chemicals).
The level of phosphorylated MAPK was quantitatively determined with a densitometer, and the percentage phosphorylated MAPK in the presence of the test compound was determined by presuming the level of phosphorylated MAPK with the addition of VEGF in the absence of the test compound to be 100% and the level of phosphorylated MAPK in the absence of the test compound and VEGF to be 0%. The test compound concentration (IC50) necessary for inhibiting 50% of the activation of MAPK was calculated based on the percentage of phosphorylated MAPK.
On the technique in general: A western blot detects proteins with antibodies after separation by electrophoresis.

The next assay deals with T1, human KDR (Homo sapiens, UniProt P35968).
T1 construct: expressed in transfected cells; host or cells: NIH 3T3 cells (Sawano A et al., Cell Growth & Differentiation 7, 213-221 (1996))
Briefly: Inhibitory activity against KDR phosphorylation by ELISA. It is filed as cell-based. Conditions: NIH 3T3 cells transfected with human KDR, VEGF 100 ng/ml. For orientation: In an ELISA, binding on a coated surface is turned into a signal by an enzyme label.

The subject of the next assay is Human glioma cells GL07. Briefly: Antitumor effect on human glioma cells (GL07) transplanted into nude mice. It is filed as in vivo. The following applies: 20 mg/kg once a day for 9 days; for inhibition in vivo at 20 mg/kg: Mus musculus, Glioma cell, 216 h, read-out: TGIR, % (tumor growth inhibition rate). In a few lines: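 GL07 xenografts in nude mice, grouped (n=4) at ~100 mm^3 tumor volume. Test compound 20 mg/kg p.o. or i.p. once daily for 9 days; vehicle controls. TGIR = (1−Tx/Cx)×100 from tumor volumes normalized to day-of-start volume = 1.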

T1 sequence (P35968 20-1356): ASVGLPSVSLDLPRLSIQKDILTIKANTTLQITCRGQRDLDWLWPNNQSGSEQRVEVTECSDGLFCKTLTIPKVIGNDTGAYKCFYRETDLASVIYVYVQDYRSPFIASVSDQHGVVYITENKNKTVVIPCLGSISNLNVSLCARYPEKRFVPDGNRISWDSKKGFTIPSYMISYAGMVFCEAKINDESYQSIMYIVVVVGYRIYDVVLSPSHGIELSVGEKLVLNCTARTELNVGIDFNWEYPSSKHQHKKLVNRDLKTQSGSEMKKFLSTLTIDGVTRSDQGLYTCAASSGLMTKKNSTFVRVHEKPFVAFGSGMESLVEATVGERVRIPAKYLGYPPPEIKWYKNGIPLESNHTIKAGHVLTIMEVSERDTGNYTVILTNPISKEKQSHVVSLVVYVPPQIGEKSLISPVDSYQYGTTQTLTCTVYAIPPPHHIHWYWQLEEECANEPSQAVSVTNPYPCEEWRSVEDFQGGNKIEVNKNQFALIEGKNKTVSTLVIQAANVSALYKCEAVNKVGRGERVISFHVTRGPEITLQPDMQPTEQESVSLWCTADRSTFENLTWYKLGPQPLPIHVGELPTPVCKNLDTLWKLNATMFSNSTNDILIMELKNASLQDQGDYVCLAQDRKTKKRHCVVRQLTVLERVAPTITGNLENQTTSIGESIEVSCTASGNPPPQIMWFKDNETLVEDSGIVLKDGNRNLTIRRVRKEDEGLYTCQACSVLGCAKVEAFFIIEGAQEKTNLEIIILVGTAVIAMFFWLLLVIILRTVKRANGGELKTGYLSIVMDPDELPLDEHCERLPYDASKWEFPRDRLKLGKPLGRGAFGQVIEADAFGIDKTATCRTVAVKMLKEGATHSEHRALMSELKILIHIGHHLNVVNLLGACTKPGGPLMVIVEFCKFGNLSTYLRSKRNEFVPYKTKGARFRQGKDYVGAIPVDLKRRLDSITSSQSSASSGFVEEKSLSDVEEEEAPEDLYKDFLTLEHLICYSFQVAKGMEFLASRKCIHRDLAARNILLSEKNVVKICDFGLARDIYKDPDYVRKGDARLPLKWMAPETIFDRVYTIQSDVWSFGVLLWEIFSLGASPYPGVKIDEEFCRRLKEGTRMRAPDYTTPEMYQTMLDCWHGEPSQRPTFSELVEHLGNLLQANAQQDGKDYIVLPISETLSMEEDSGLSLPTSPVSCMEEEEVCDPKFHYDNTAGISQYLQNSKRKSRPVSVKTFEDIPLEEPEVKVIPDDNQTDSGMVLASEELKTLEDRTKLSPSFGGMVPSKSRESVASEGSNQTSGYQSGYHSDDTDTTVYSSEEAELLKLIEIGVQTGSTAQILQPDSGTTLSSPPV

In the case of `CCNC(=O)Nc1ccc(Oc2ncnc3cc(OC)c(OC)cc23)cc1` [Example 63, N-{4-[(6,7-Dimethoxy-4-quinazolinyl)oxy]-phenyl}-N′-ethylurea], the values for the IC50 (in assay [1] (Endothelial cell); against human KDR) were 70 nM and 150 nM, respectively.

Turning to `COc1cc2ncnc(Oc3ccc(NC(=O)Nc4ccc(Cl)cn4)c(Cl)c3)c2cc1OC` [Example 87, N-{2-Chloro-4-[(6,7-dimethoxy-4-quinazolinyl)oxy]phenyl}-N′-(5-chloro-2-pyridyl)urea], the IC50 in assay [1] (Endothelial cell) was 58 nM; at human KDR it was 110 nM.

With `COc1cc2ncnc(Oc3ccc(NC(=O)Nc4ccc(F)cc4)cc3)c2cc1OC` [Example 73, N-{4-[(6,7-Dimethoxy-4-quinazolinyl)oxy]-phenyl}-N′-(4-fluorophenyl)urea], the IC50 was less than 2 nM in assay [1] (Endothelial cell) and 1 nM against human KDR. Further, the inhibition in vivo at 20 mg/kg in the assay with Human glioma cells GL07 (GL07, oral) stood at 34%.

In the case of `COc1cc2ncnc(Oc3ccc(NC(=O)NCc4ccc(F)cc4F)c(Cl)c3)c2cc1OC` [Example 82, N-{2-Chloro-4-[(6,7-dimethoxy-4-quinazolinyl)oxy]phenyl}-N′-(2,4-difluorobenzyl)urea], the IC50 in assay [1] (Endothelial cell) was found to be 3.8 nM; against human KDR, 8.4 nM. Further, the inhibition in vivo at 20 mg/kg in the assay with Human glioma cells GL07 (GL07, oral) stood at 27%.

As to `COc1ccccc1NC(=O)Nc1ccc(Oc2ncnc3cc(OC)c(OC)cc23)cc1` [Example 75, N-{4-[(6,7-Dimethoxy-4-quinazolinyl)oxy]-phenyl}-N′-(2-methoxyphenyl)urea], the IC50 is 1.2 nM in assay [1] (Endothelial cell) and 1.4 nM on human KDR.

As for `COc1ccccc1NC(=O)Nc1ccc(Oc2ncnc3cc(OC)c(OC)cc23)cc1F` [Example 96, N-{4-[(6,7-Dimethoxy-4-quinazolinyl)oxy]-2-fluorophenyl}-N′-(2-methoxyphenyl)urea], the IC50 in assay [1] (Endothelial cell) was less than 1 nM; at human KDR it was 0.4 nM.

For the compound `CCCCNC(=O)Nc1ccc(Oc2ncnc3cc(OC)c(OC)cc23)cc1Cl` [Example 77, N-Butyl-N′-{2-chloro-4-[(6,7-dimethoxy-4-quinazolinyl)oxy]phenyl}urea], the IC50 worked out at 71 nM in assay [1] (Endothelial cell) and 6 nM against human KDR. The inhibition in vivo at 20 mg/kg in the assay on Human glioma cells GL07 (GL07, oral) is 26%.

Regarding `COc1cc2ncnc(Oc3ccc(NC(=O)NCc4ccc(F)cc4F)c(F)c3)c2cc1OC` [Example 93, N-(2,4-Difluorobenzyl)-N′-{4-[(6,7-dimethoxy-4-quinazolinyl)oxy]-2-fluorophenyl}urea], the IC50 was 14 nM in assay [1] (Endothelial cell) and 37 nM at human KDR. The inhibition in vivo at 20 mg/kg in the assay with Human glioma cells GL07 (GL07, oral) came out at 29%.

For the compound `COc1cc2ncnc(Oc3ccc(NC(=O)NCc4ccccn4)cc3)c2cc1OC` [Example 71, N-{4-[(6,7-Dimethoxy-4-quinazolinyl)oxy]-phenyl}-N′-(2-pyridylmethyl)urea], the results for the IC50 (in assay [1] (Endothelial cell); on human KDR) were 750 nM and 350 nM, respectively. In addition, in the assay with Human glioma cells GL07 (GL07, oral), the inhibition in vivo at 20 mg/kg came out at 67%.

Consider `CCCCCNC(=O)Nc1ccc(Oc2ncnc3cc(OC)c(OC)cc23)cc1` [Example 66, N-{4-[(6,7-Dimethoxy-4-quinazolinyl)oxy]-phenyl}-N′-pentylurea], for which the IC50 in assay [1] (Endothelial cell) was 21 nM; on human KDR, 15 nM. Also, in the assay with Human glioma cells GL07 (GL07, oral), the inhibition in vivo at 20 mg/kg was 26%.

Turning to `CCCCNC(=O)Nc1ccc(Oc2ncnc3cc(OC)c(OC)cc23)cc1F` [Example 89, N-Butyl-N′-{4-[(6,7-dimethoxy-4-quinazolinyl)oxy]-2-fluorophenyl}urea], the IC50 in assay [1] (Endothelial cell) worked out at 45 nM; on human KDR, 24 nM. Besides, the inhibition in vivo at 20 mg/kg in the assay on Human glioma cells GL07 (GL07, oral) was 40%.

For the compound `CCCNC(=O)Nc1ccc(Oc2ccnc3cc(OC)c(OC)cc23)cc1F` [Example 5, N-{4-[(6,7-Dimethoxy-4-guinolyl)oxy]-2-fluorophenyl}-N′-propylurea], the IC50 in assay [1] was 2.9 nM. Further, the “TGIR, % (tumor growth inhibition rate)” value in the assay on Human glioma cells GL07 (GL07, oral) turned out to be 59%.

Regarding `CCC(C)NC(=O)Nc1ccc(Oc2ncnc3cc(OC)c(OC)cc23)cc1F` (stereo not drawn) [Example 90, N-(sec-Butyl)-N′-{4-[(6,7-dimethoxy-4-quinazolinyl)oxy]-2-fluorophenyl}urea], the values for the IC50 (in assay [1] (Endothelial cell); on human KDR) were 42 nM and 57 nM, respectively.

As to `COc1cc2ncnc(Oc3ccc(NC(=O)Nc4ccccc4C)cc3)c2cc1OC` [Example 74, N-{4-[(6,7-Dimethoxy-4-quinazolinyl)oxy]-phenyl}-N′-(2-methylphenyl)urea], the 50% inhibitory concentration (IC50) in assay [1] (Endothelial cell) was 6 nM; against human KDR it was 11 nM. In addition, the inhibition in vivo at 20 mg/kg in the assay with Human glioma cells GL07 (GL07, oral) came to 28%.

As to `C#CCNC(=O)Nc1ccc(Oc2ncnc3cc(OC)c(OC)cc23)cc1F` [Example 92, N-{4-[(6,7-Dimethoxy-4-quinazolinyl)oxy]-2-fluorophenyl}-N′-(2-propynyl)urea], the values for the IC50 (in assay [1] (Endothelial cell); against human KDR) were 46 nM and 63 nM, respectively.

Consider `COc1cc2ncnc(Oc3ccc(NC(=O)Nc4ccc(F)cc4F)c(C)c3)c2cc1OC` [Example 104, N-(2,4-Difluorophenyl)-N′-{4-[(6,7-dimethoxy-4-quinazolinyl)oxy]-2-methylphenyl}urea], for which the IC50 in assay [1] (Endothelial cell) was 5.3 nM; at human KDR, 3.9 nM. Further, in the assay with Human glioma cells GL07 (GL07, oral), the inhibition in vivo at 20 mg/kg worked out at 22%.

`CCCCNC(=O)Nc1ccc(Oc2ncnc3cc(OC)c(OC)cc23)c(C)c1` [Example 98, N-Butyl-N′-{4-[(6,7-dimethoxy-4-quinazolinyl)oxy]-3-methylphenyl}urea]: the results for the IC50 (in assay [1] (Endothelial cell); on human KDR) were 450 nM and 330 nM, respectively. Further, the inhibition in vivo at 20 mg/kg in the assay with Human glioma cells GL07 (GL07, oral) turned out to be 38%.

Regarding `CCC(C)NC(=O)Nc1ccc(Oc2ncnc3cc(OC)c(OC)cc23)cc1` (stereo not drawn) [Example 67, N-(sec-Butyl)-N′-{4-[(6,7-dimethoxy-4-quinazolinyl)oxy]phenyl}urea], the 50% inhibitory concentration (IC50) in assay [1] (Endothelial cell) worked out at 345 nM; against human KDR, 63 nM. The inhibition in vivo at 20 mg/kg in the assay on Human glioma cells GL07 (GL07, oral) stood at 30%.

Compound `C=CCNC(=O)Nc1ccc(Oc2ccnc3cc(OC)c(OC)cc23)cc1F` [Example 4, N-Allyl-N′-{4-[(6,7-dimethoxy-4-quinolyl)-oxy]-2-fluorophenyl}urea] gave an IC50 in assay [1] (Endothelial cell) of 2.1 nM. In addition, the inhibition in vivo at 20 mg/kg with Human glioma cells GL07 (GL07, oral) turned out to be 61%.

On to `COc1ccccc1NC(=O)Nc1ccc(Oc2ncnc3cc(OC)c(OC)cc23)cc1C` [Example 106, N-{4-[(6,7-Dimethoxy-4-quinazolinyl)oxy]-2-methylphenyl}-N′-(2-methoxyphenyl)urea], for which the IC50 in assay [1] (Endothelial cell) was less than 1 nM; against human KDR, 1.5 nM.

In the case of `COc1ccccc1NC(=O)Nc1ccc(Oc2ncnc3cc(OC)c(OC)cc23)cc1Cl` [Example 86, N-{2-Chloro-4-[(6,7-dimethoxy-4-quinazolinyl)oxy]phenyl}-N′-(2-methoxyphenyl)urea], the IC50 was 0.6 nM in assay [1] (Endothelial cell) and 1.5 nM at human KDR.

Regarding `COc1cc2ncnc(Oc3ccc(NC(=O)NCc4ccc(F)cc4F)cc3)c2cc1OC` [Example 70, N-(2,4-Difluorobenzyl)-N′-{4-[(6,7-dimethoxy-4-quinazolinyl)oxy]phenyl}urea], the IC50 in assay [1] (Endothelial cell) came to 6.8 nM; against human KDR, 32 nM.

With `CCNC(=O)Nc1ccc(Oc2ncnc3cc(OC)c(OC)cc23)cc1Cl` [Example 76, N-{2-chloro-4-[(6,7-dimethoxy-4-quinazolinyl)-oxy]phenyl}-N′-ethylurea], the IC50 in assay [1] (Endothelial cell) turned out to be 8 nM; at human KDR it was 3.5 nM.

Consider `COc1cc2ncnc(Oc3ccc(NC(=O)Nc4ccccc4C)c(F)c3)c2cc1OC` [Example 95, N-{4-[(6,7-Dimethoxy-4-quinazolinyl)oxy]-2-fluorophenyl}-N′-(2-methylphenyl)urea], for which the IC50 is 2.7 nM in assay [1] (Endothelial cell) and 3.8 nM on human KDR.

`CCCCNC(=O)Nc1ccc(Oc2ccnc3cc(OC)c(OC)cc23)cc1F` [Example 9, N-Butyl N′-{4-[(6,7-dimethoxy-4-quinolyl)oxy]-2-fluorophenyl}urea]: inhibition in assay [1] (Endothelial cell) was half-maximal at 5.1 nM (IC50). Also, the inhibition in vivo at 20 mg/kg in the assay on Human glioma cells GL07 (ip, GL07, intraperitoneal) worked out at 59%.

`COc1cc2c(Oc3ccc(NC(=O)Nc4ccc(F)cc4F)c(F)c3)ccnc2cc1OCCN1CCOCC1` [Example 50, N-(2,4-Difluorophenyl)-N′-(2-fluoro-4-{[6-methoxy-7-(2-morpholinoethoxy)-4-quinolyl]oxy}phenyl)-urea] gave an IC50 in assay [1] (Endothelial cell) of 0.5 nM. Further, in the assay with Human glioma cells GL07 (GL07, oral), the inhibition in vivo at 20 mg/kg came out at 59%.

As a reminder, the IC50 is the concentration needed to halve the response being measured. A low value points to higher potency.
